{"source": "patent US20240368191A1", "about": "“HETEROCYCLIC COMPOUNDS AND USES THEREOF” (Kumquat Biosciences Inc., priority 2021, published 2024)", "key": {"[1]": {"assay": "in vitro", "details": "microsomes, pH 7.4", "protocol": "(§1) The metabolic stability of a test compound is assayed at 37° C. using pooled liver microsomes (mouse or human liver microsomes). An aliquot of 10 μL of 50 μM test compound is mixed with 490 μL of 0.611 mg/mL liver microsomes, then 50 μL of the mixtures are dispensed to the 96 well tubes and warmed at 37° C. for 10 minutes. The reactions are initiated by adding 50 μL of the pre-warmed NADPH regeneration system solution (add 1.2 μL solution, 240 μl solution B, mix with 10.56 ml KPBS) and then incubated at 37° C. The final incubation solution contains 100 mM potassium phosphate (pH 7.4), 1.3 mM NADP+, 3.3 mM glucose 6-phosphate, 0.4 Unit/mL of glucose 6-phosphate dehydrogenase, 3.3 mM magnesium chloride, 0.3 mg/mL liver microsomes and 0.5 μM test article. After 0, 15, 30 and 60 minutes in a shaking incubator, the reactions are terminated by adding 100 μL of acetonitrile containing 200 nM buspirone as an internal standard. All incubations are conducted in duplicate. […] Samples are then centrifuged at 3500 rpm for 10 minutes (4° C.) using Sorvall Legend XRT Centrifuge (Thermo Scientific, GE). Supernatants (40 μL) are transferred into clean 96-deep well plates. Each well is added with 160 μL of ultrapure water (Milli-Q, Millipore Corporation) with 0.1% (v/v) formic acid (Fisher Chemical), mixed thoroughly and subjected to LC/MS/MS analysis in MRM positive ionization mode.\n(§2) All the samples are measured using a mass spectrometer (QTrap 5500 quadrupole/ion trap) coupled with a Shimadzu HPLC system. The HPLC system consisted of a Shimadzu series degasser, binary quaternary gradient pumps, column heater coupled to an autosampler, and a Phenomenex Gemini-NX, C18, 3.0 μm or Phenomenex Lunar, C8, 5.0 μM HPLC column (Phenomenex, Torrance, CA), and eluted with a mobile phase gradient consisting of Solution A (0.1% formic acid water) and Solution B (0.1% formic acid acetonitrile). The column temperature is maintained at 40° C. All the analytes are detected with positive-mode electrospray ionization (ES+).\n(§3) The half-life for the metabolic degradation of the test compound is calculated by plotting the time-course disappearance of the test compound during the incubation with liver microsomes. Each plot is fitted to a first-order equation for the elimination of the test compound (% remaining compound) versus time using non-linear regression (Equation 1).\n(§4) where Ct is the mean relative substrate concentration at time t and C0 is the initial concentration (0.5 μM) at time 0. Note that the area ratio of the substrate peak to an internal standard peak is proportional to the analyte concentration and is used for regression analysis to derive a value of k."}, "[2]": {"molecular_target": "T1, KRAS G12D 1-169 (His-tagged, GDP-loaded) (Homo sapiens, UniProt P01116, G12D)", "T1 construct": "His -tagged GDP-loaded G12D 1-169; made in house; host or cells: E. coli, e.g. BL21 (DE3)", "T1 sequence (P01116 1-169 isoform P01116-2 G12D)": "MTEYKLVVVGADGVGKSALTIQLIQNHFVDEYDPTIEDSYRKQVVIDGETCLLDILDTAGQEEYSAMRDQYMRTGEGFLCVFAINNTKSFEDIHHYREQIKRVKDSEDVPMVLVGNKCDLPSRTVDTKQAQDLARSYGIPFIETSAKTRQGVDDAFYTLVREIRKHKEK", "assay": "Covalent modification of KRAS protein by intact-protein LC-MS", "format": "binding", "details": "comparable or same conditions as K-Ras G12S", "summary_of_the_method": "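Percent modification is derived from deconvoluted intact-protein LC-ESI-MS peak intensities of adducted versus unmodified KRAS. GDP-loaded His-tagged KRAS 1-169 (~2 μM, HEPES buffer at physiological conditions) was exposed to compound for 24 hrs at room temperature, then quenched with formic acid before C4 reversed-phase separation.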"}, "[3]": {"assay": "Metabolic (microsomal) stability assay", "details": "pooled liver microsomes, pH 7.4", "protocol": "as §1, §2, §3, §4"}}, "data": [{"smiles": "N#Cc1c(N)sc2c(F)ccc(-c3c(Cl)cc4c(N5CC6CCC(C5)N6C(=O)n5ccnc5)nc(OC[C@@]56CCCN5C[C@H](F)C6)nc4c3F)c12", "note": "[Compound A105, 4-(4-(8-(1H-imidazole-1-carbonyl)-3,8-diazabicyclo-[3.2.1]octan-3-yl)-6-chloro-8-fluoro-2-(((2R,7aS)-2-fluoro-tetrahydro-1H-pyrrolizin-7a(5H)-yl)methoxy)quinazolin-7-yl)-2-amino-7-fluorobenzo-[b]thiophene-3-carbonitrile]", "values": [{"measurement": "half-life at 0.5 μM", "setting": "[1]", "value": "> 10", "unit": "min"}]}, {"smiles": "Nc1nc2c(-c3c(Cl)cc4c(N5CC6CCC(C5)N6C(=O)n5cncn5)nc(OC[C@@]56CCCN5C[C@H](F)C6)nc4c3F)ccc(F)c2s1", "note": "[Compound A111, (3-(7-(2-amino-7-fluorobenzo-[d]thiazol-4-yl)-6-chloro-8-fluoro-2-(((2R,7aS)-2-fluoro-tetrahydro-1H-pyrrolizin-7a(5H)-yl)methoxy)quinazolin-4-yl)-3,8-diazabicyclo[3.2.1]-octan-8-yl)(1H-1,2,4-triazol-1-yl)methanone]", "values": [{"measurement": "half-life at 0.5 μM", "setting": "[1]", "value": "> 10", "unit": "min"}]}, {"smiles": "N#Cc1c(N)sc2c(F)ccc(-c3c(Cl)cc4c(N5CC6CCC(C5)N6C(=O)n5cc(C(F)(F)F)cn5)nc(OC[C@@]56CCCN5C[C@H](F)C6)nc4c3F)c12", "note": "[Compound A122, 2-amino-4-(6-chloro-8-fluoro-2-(((2R,7aS)-2-fluorotetrahydro-1H-pyrrolizin-7a(5H)-yl)meth-oxy)-4-(8-(4-(trifluoromethyl)-1H-pyrazole-1-carbonyl)-3,8-diazabicyclo[3.2.1]octan-3-yl)-quinazolin-7-yl)-7-fluorobenzo-[b]thiophene-3-carbonitrile]", "values": [{"measurement": "half-life at 0.5 μM", "setting": "[1]", "value": "> 10", "unit": "min"}]}, {"smiles": "C#Cc1c(F)ccc2cc(O)cc(-c3ncc4c(N5CC6CCC(C5)N6C(=O)Nc5ncccn5)nc(OC[C@@]56CCCN5C[C@H](F)C6)nc4c3F)c12", "note": "[Compound A131, 3-(7-(8-ethynyl-7-fluoro-3-hydroxynaphthalen-1-yl)-8-fluoro-2-(((2R,7aS)-2-fluoro-tetrahydro-1H-pyrrolizin-7a(5H)-yl)methoxy)pyrido[4,3-d]pyrimidin-4-yl)-N-(pyrimidin-2-yl)-3,8-diazabicyclo[3.2.1]-octane-8-carboxamide]", "values": [{"measurement": "half-life at 0.5 μM", "setting": "[1]", "value": "> 10", "unit": "min"}]}, {"smiles": "C#Cc1c(F)ccc2cc(O)cc(-c3ncc4c(N5CC6CCC(C5)N6C(=O)n5cc(C#N)cn5)nc(OC[C@@]56CCCN5C[C@H](F)C6)nc4c3F)c12", "note": "[Compound A143, 1-(3-(7-(8-ethynyl-7-fluoro-3-hydroxynaphthalen-1-yl)-8-fluoro-2-(((2R,7aS)-2-fluoro-tetrahydro-1H-pyrrolizin-7a(5H)-yl)methoxy)pyrido[4,3-d]pyrimidin-4-yl)-3,8-diaza-bicyclo[3.2.1]octane-8-carbon-yl)-1H-pyrazole-4-carbonitrile]", "values": [{"measurement": "half-life at 0.5 μM", "setting": "[1]", "value": "> 10", "unit": "min"}]}, {"smiles": "Cc1ncn(C(=O)N2CC3(C2)CN(c2nc(OC[C@@]45CCCN4C[C@H](F)C5)nc4c(F)c(-c5ccc(F)c6sc(N)c(C#N)c56)c(Cl)cc24)CCO3)n1", "note": "[Compound A148, 2-amino-4-(6-chloro-8-fluoro-2-(((2R,7aS)-2-fluorotetrahydro-1H-pyrrolizin-7a(5H)-yl)-methoxy)-4-(2-(3-methyl-1H-1,2,4-triazole-1-carbonyl)-5-oxa-2,8-diazaspiro[3.5]nonan-8-yl)quinazolin-7-yl)-7-fluoro-benzo[b]thiophene-3-carbonitrile]", "values": [{"measurement": "covalent labeling of K-Ras G12D", "setting": "[2]", "value": "essentially no detectable labeling"}, {"measurement": "half-life at 0.5 μM", "setting": "[3]", "value": "> 10", "unit": "min"}]}, {"smiles": "C#Cc1c(F)ccc2cc(O)cc(-c3ncc4c(N5CC6CCC(C5)N6C(=O)n5ccnc5)nc(OC[C@@]56CCCN5C[C@H](F)C6)nc4c3F)c12", "note": "[Compound A163, (3-(7-(8-ethynyl-7-fluoro-3-hydroxynaphthalen-1-yl)-8-fluoro-2-(((2R,7aS)-2-fluoro-tetrahydro-1H-pyrrolizin-7a(5H)-yl)methoxy)pyrido[4,3-d]pyrimidin-4-yl)-3,8-diaza-bicyclo[3.2.1]octan-8-yl)(1H-imidazol-1-yl)methanone]", "values": [{"measurement": "half-life at 0.5 μM", "setting": "[1]", "value": "> 10", "unit": "min"}]}, {"smiles": "CN1CCC[C@H]1COc1nc(N2CCOC3(CN(C(=O)n4cncn4)C3)C2)c2cc(Cl)c(-c3ccc(F)c4sc(N)c(C#N)c34)c(F)c2n1", "note": "[Compound A182, 4-(4-(2-(1H-1,2,4-triazole-1-carbonyl)-5-oxa-2,8-diazaspiro-[3.5]nonan-8-yl)-6-chloro-8-fluoro-2-(((S)-1-methylpyrrol-idin-2-yl)methoxy)quinazolin-7-yl)-2-amino-7-fluorobenzo-[b]thiophene-3-carbonitrile]", "values": [{"measurement": "covalent labeling of K-Ras G12D", "setting": "[2]", "value": "essentially no detectable labeling"}, {"measurement": "half-life at 0.5 μM", "setting": "[3]", "value": "> 10", "unit": "min"}]}, {"smiles": "N#Cc1c(N)sc2c(F)ccc(-c3ncc4c(N5CC6CCC(C5)N6C(=O)n5cncn5)nc(OC[C@@]56CCCN5C[C@H](F)C6)nc4c3F)c12", "note": "[Compound A206, 4-(4-(8-(1H-1,2,4-triazole-1-carbonyl)-3,8-diazabicyclo-[3.2.1]octan-3-yl)-8-fluoro-2-(((2R,7aS)-2-fluorotetrahydro-1H-pyrrolizin-7a(5H)-yl)meth-oxy)pyrido[4,3-d]pyrimidin-7-yl)-2-amino-7-fluorobenzo[b]-thiophene-3-carbonitrile]", "values": [{"measurement": "half-life at 0.5 μM", "setting": "[1]", "value": "> 10", "unit": "min"}]}, {"smiles": "N#Cc1c(N)sc2c(F)ccc(-c3c(Cl)cc4c(O[C@@H]5CCN(C(=O)n6cncn6)C5)nc(OCC56CCCN5C[C@H](F)C6)nc4c3F)c12", "note": "(stereo partly drawn) [Compound A213, 4-(4-(((R)-1-(1H-1,2,4-triazole-1-carbonyl)pyrrolidin-3-yl)oxy)-6-chloro-8-fluoro-2-(((2R)-2-fluorotetrahydro-1H-pyrrolizin-7a(5H)-yl)methoxy)quinazolin-7-yl)-2-amino-7-fluorobenzo-[b]thiophene-3-carbonitrile]", "values": [{"measurement": "covalent labeling of K-Ras G12D", "setting": "[2]", "value": "essentially no detectable labeling"}, {"measurement": "half-life at 0.5 μM", "setting": "[3]", "value": "> 10", "unit": "min"}]}, {"smiles": "N#Cc1c(N)sc2c(F)ccc(-c3c(Cl)cc4c(N5CC6CCC(C5)N6C(=O)Nc5ncccn5)nc(OC[C@@]56CCCN5C[C@H](F)C6)nc4c3F)c12", "note": "[Compound A215, 3-(7-(2-amino-3-cyano-7-fluorobenzo[b]thiophen-4-yl)-6-chloro-8-fluoro-2-(((2R,7aS)-2-fluorotetrahydro-1H-pyrrolizin-7a(5H)-yl)methoxy)quinazolin-4-yl)-N-(pyrimidin-2-yl)-3,8-diazabicyclo[3.2.1]octane-8-carboxamide]", "values": [{"measurement": "half-life at 0.5 μM", "setting": "[1]", "value": "> 10", "unit": "min"}]}, {"smiles": "C[C@H](Oc1nc(N2CCCCC3(CN(C(=O)n4cncn4)C3)C2)c2cc(Cl)c(-c3ccc(F)c4sc(N)c(C#N)c34)c(F)c2n1)[C@@H]1CCCN1C", "note": "[Compound A219, 4-(4-(2-(1H-1,2,4-triazole-1-carbonyl)-2,6-diazaspiro[3.6]-decan-6-yl)-6-chloro-8-fluoro-2-((S)-1-((S)-1-methylpyrrol-idin-2-yl)ethoxy)quinazolin-7-yl)-2-amino-7-fluorobenzo-[b]thiophene-3-carbonitrile]", "values": [{"measurement": "covalent labeling of K-Ras G12D", "setting": "[2]", "value": "essentially no detectable labeling"}, {"measurement": "half-life at 0.5 μM", "setting": "[3]", "value": "> 10", "unit": "min"}]}, {"smiles": "N#Cc1c(N)sc2c(F)ccc(-c3c(Cl)cc4c(N5CC6CCC(C5)N6C(=O)n5ccnc5C#N)nc(OC[C@@]56CCCN5C[C@H](F)C6)nc4c3F)c12", "note": "[Compound A220, 1-(3-(7-(2-amino-3-cyano-7-fluorobenzo[b]thiophen-4-yl)-6-chloro-8-fluoro-2-(((2R,7aS)-2-fluorotetrahydro-1H-pyrrol-izin-7a(5H)-yl)methoxy)quin-azolin-4-yl)-3,8-diazabicyclo-[3.2.1]octane-8-carbonyl)-1H-imidazole-2-carbonitrile]", "values": [{"measurement": "half-life at 0.5 μM", "setting": "[1]", "value": "> 10", "unit": "min"}]}, {"smiles": "Nc1nc2c(-c3c(Cl)cc4c(N5CCOC6(CCN(C(=O)n7cncn7)C6)C5)nc(OC[C@@]56CCCN5C[C@H](F)C6)nc4c3F)ccc(F)c2s1", "note": "(stereo partly drawn) [Compound A221, (9-(7-(2-amino-7-fluorobenzo-[d]thiazol-4-yl)-6-chloro-8-fluoro-2-(((2R,7aS)-2-fluoro-tetrahydro-1H-pyrrolizin-7a(5H)-yl)methoxy)quinazolin-4-yl)-6-oxa-2,9-diazaspiro[4.5]-decan-2-yl)(1H-1,2,4-triazol-1-yl)methanone]", "values": [{"measurement": "covalent labeling of K-Ras G12D", "setting": "[2]", "value": "essentially no detectable labeling"}, {"measurement": "half-life at 0.5 μM", "setting": "[3]", "value": "> 10", "unit": "min"}]}, {"smiles": "N#Cc1ccn(C(=O)N2C3CCC2CN(c2nc(OC[C@@]45CCCN4C[C@H](F)C5)nc4c(F)c(-c5ccc(F)c6sc(N)c(C#N)c56)c(Cl)cc24)C3)n1", "note": "[Compound A224, 1-(3-(7-(2-amino-3-cyano-7-fluorobenzo[b]thiophen-4-yl)-6-chloro-8-fluoro-2-(((2R,7aS)-2-fluorotetrahydro-1H-pyrrolizin-7a(5H)-yl)methoxy)quinazolin-4-yl)-3,8-diazabicyclo[3.2.1]-octane-8-carbonyl)-1H-pyrazole-3-carbonitrile]", "values": [{"measurement": "half-life at 0.5 μM", "setting": "[1]", "value": "> 10", "unit": "min"}]}, {"smiles": "CN(C)C1CN(c2nc(N3CCOC4(CN(C(=O)n5cncn5)C4)C3)c3cc(Cl)c(-c4ccc(F)c5sc(N)c(C#N)c45)c(F)c3n2)C1", "note": "[Compound A256, 4-(4-(2-(1H-1,2,4-triazole-1-carbonyl)-5-oxa-2,8-diazaspiro[3.5]nonan-8-yl)-6-chloro-2-(3-(dimethylamino)azetidin-1-yl)-8-fluoroquinazolin-7-yl)-2-amino-7-fluorobenzo[b]thiophene-3-carbonitrile]", "values": [{"measurement": "covalent labeling of K-Ras G12D", "setting": "[2]", "value": "essentially no detectable labeling"}, {"measurement": "half-life at 0.5 μM", "setting": "[3]", "value": "> 10", "unit": "min"}]}, {"smiles": "CC1(C)CN(c2nc(OC[C@@]34CCCN3C[C@H](F)C4)nc3c(F)c(-c4ccc(F)c5sc(N)c(C#N)c45)c(Cl)cc23)CC2(CN(C(=O)n3cncn3)C2)O1", "note": "[Compound A296, 2-amino-4-(6-chloro-4-(6,6-dimethyl-2-(1H-1,2,4-triazole-1-carbonyl)-5-oxa-2,8-diaza-spiro[3.5]nonan-8-yl)-8-fluoro-2-(((2R,7aS)-2-fluorotetrahydro-1H-pyrrolizin-7a(5H)-yl)meth-oxy)quinazolin-7-yl)-7-fluoro-benzo[b]thiophene-3-carbonitrile]", "values": [{"measurement": "covalent labeling of K-Ras G12D", "setting": "[2]", "value": "essentially no detectable labeling"}, {"measurement": "half-life at 0.5 μM", "setting": "[3]", "value": "> 10", "unit": "min"}]}]}
